In patent US20210052701A1, “Methods of Treating Vascular Leakage Using CXCL12 Peptides” (The Medical College of Wisconsin, Inc., priority 2018, published 2021):
“Also recorded” adds a separate entry of the source.

Columns and labels:
CXCR4 = molecular target: T1, CXCR4 (Homo sapiens, UniProt P61073); assay: Presto-Tango β-arrestin 2 recruitment assay for CXCR4; assay type: cell-based
T1 construct: host or cells: HTLA cells (HEK293 line stably expressing a tTA-dependent luciferase reporter and a β-arrestin2-TEV fusion gene)

[1] = system: animal model of acute respiratory distress syndrome (ARDS); assay: Animal model of ARDS: lung ischemia reperfusion injury plus hemorrhage (P:F ratio, lung injury score); assay type: in vivo, Sprague-Dawley rats
Description: Animals underwent 70 min of […] lung ischemia for 70 min plus hemorrhage to a MAP of 40 mmHg for the last 30 min of ischemia, followed by fluid resuscitation to a MAP of 60 mmHg until t=300 min. Arrow: drug injection. Dashed lines indicate the P:F ratio (mmHg) threshold values for the diagnosis of mild, moderate and severe ARDS. Vehicle: n=5. CXCL12: n=3. CXCL12: n=4. CXCL12-LM: n=3, CXCL12-LD: n=4. CXCL12 K27A/R41A/R47A: n=3. LI+HEM: lung ischemia reperfusion injury plus hemorrhage. Data are mean±SEM. *: p<0.05 vs. vehicle (2-way ANOVA/Dunnett's multiple comparisons test).
FIGS. 12A-12C show lung histology after treatment with CXCL12 and engineered CXCR4 agonists A. Lung specimens were placed in formalin fixative solution and were then embedded in paraffin wax, sliced into 5 μm sections and stained with H&E. Representative images from H&E stained lung sections from animals after vehicle (left) and CXCL12 ([…], right treatment. B/C. Lung injury scores (B. uninjured (left) lung; C. injured (right) lung). Data are median±interquartile ranges. Data were analyzed with the Kruskal Wallis test with Dunn's multiple comparisons test. The level of statistical significance (p) vs. ctrl. (vehicle treatment) indicated.
We tested therapeutic efficacy of wild-type CXCL12, CXXL12-locked dimer (LD), CXCL12-locked monomer (LM) and the triple mutant CXCL12 K27A/R41A/R47A in an animal model of acute respiratory distress syndrome (ARDS) (FIG. 11). All drugs were injected in a dose of 0.14 μmol/kg. Male Sprague-Dawley rats were anesthetized, orotracheally intubated, instrumented with arterial/venous catheters, and mechanically ventilated (PEEP 2 mmHg, FiO2 1.0). After a right lateral thoracotomy, a suture was tied around the hilum of the right lung. Animals underwent 70 min of right lung ischemia plus hemorrhage to a mean arterial blood pressure (MAP) of 40 mmHg for the last 30 min of lung ischemia. At t=70 min, the suture was removed, animals were ventilated with FiO2 1.0, PEEP 5 mmHg and resuscitated with crystalloids to a MAP of 60 mmHg until t=300 min. Vehicle and drugs were injected i.v. within 10 min after reperfusion.
We further evaluated histomorphology of the lungs from animals treated with vehicle, wild-type CXCL12, CXCL12-LD and CXCXL12-LM utilizing a standardized lung injury score. Lung slides stained with hematoxylin and eosin were examined under a light microscope by 4 investigators blinded to the identity of the specimens. The lung injury score was assessed as previously described/. In brief each investigator rendered a score of 0 (no damage) to 4+(maximal damage) based on an injury grading scale composed of six criteria. The slides were assessed for the extent of alveolar congestion, hemorrhage and edema, as well as alveolar and vessel wall PMN infiltration and alveolar wall thickness. […] Lung injury scores of the uninjured and injured lungs from animals treated with vehicle, wild-type CXCL12, CXCL12-LD and CXCXL12-LM are shown in FIGS. […], respectively.

HULEC-5a = assay: Effects of CXCL12 and ubiquitin on thrombin-induced impairment of HULEC-5a monolayer permeability; assay type: cell-based, human; conditions: thrombin 50 nM, after 10 min 50 nM ligand
Description: FIGS. 4A-4D show effects of CXCL12 and ubiquitin on thrombin-induced impairment of HULEC-5a monolayer permeability. (A) HULEC-5a were grown to a confluent monolayer on collagen-coated permeable membranes and then exposed to different concentration of thrombin for 10 min, followed by the addition of FITC-dextran. Endothelial permeability was assessed by measuring the amount of FITC-dextran that permeated through the cell monolayer. No cells: 100% permeability. RFU: Relative fluorescence units. N=3 in quadruplicate. (B) Dose-response curves for thrombin-induced permeability, data from A. 100% permeability=permeability in the absence of HULEC-5a. Open squares: Permeability at t=55 min. Light grey squares: Permeability at t=135 min. Dark grey squares: Permeability at t=255 min. […] Endothelial permeability was assessed by measuring the amount of FITC-dextran that permeated through the cell monolayer. RFU: Relative fluorescence units. […]
In vitro vascular permeability assays—Permeability assays were obtained from Millipore (ECM642) and performed as per manufacturer's instructions. […] Fluorescein isothiocyanate (FITC)-dextran (20 μg/mL) was then added on top of the monolayer and the amount of FITC-dextran that permeated through the monolayer was quantified by measuring fluorescence in a Synergy 2 Multi-mode Microplate Reader (BioTek, Winooski, Vt.) at various time points over a 255 min time period.

T1 sequence (P61073 whole entry, the tested form may be a part): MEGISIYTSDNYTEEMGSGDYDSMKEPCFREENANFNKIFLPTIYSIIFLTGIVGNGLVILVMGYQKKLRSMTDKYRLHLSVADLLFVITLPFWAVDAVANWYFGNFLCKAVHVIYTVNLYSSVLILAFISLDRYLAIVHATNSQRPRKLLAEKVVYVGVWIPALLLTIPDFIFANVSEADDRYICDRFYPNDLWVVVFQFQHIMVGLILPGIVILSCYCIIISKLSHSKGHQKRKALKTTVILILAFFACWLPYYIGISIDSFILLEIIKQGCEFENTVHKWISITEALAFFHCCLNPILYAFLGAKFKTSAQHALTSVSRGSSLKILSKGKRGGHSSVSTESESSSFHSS

With “CXCL12: Wild-type CXCL12 (SEQ ID NO:1), cognate agonist of CXCR4 and ACKR3” the “potency (EC50) to recruit β-arrestin 2 to CXCR4, compared with CXCL12α” value (CXCR4) was “no statistically significant differences”, the “development of ARDS (P:F ratio)” value ([1]; 0.14 μmol/kg i.v. within 10 min after reperfusion, until t=300 min) was “development of ARDS was delayed and attenuated” and the “time at which criteria for mild ARDS were fulfilled” value ([1]; 0.14 μmol/kg i.v., P:F ratio<300 mmHg) was 300 min. The “P:F ratios compared with vehicle treated animals” value ([1]; 0.14 μmol/kg i.v., t=90-240 min) was “significantly higher”, the “histological signs of lung injury, injured lung (lung injury score)” value ([1]; H&E sections, vs. vehicle) was “significantly reduced” and the “effect on thrombin-mediated impairment of HULEC-5a barrier function when added after thrombin” value (HULEC-5a) was “significantly reduced thrombin-mediated impairment of endothelial cell barrier function; also recorded: less efficacious in HULEC-5a cells than in hPPAEC”.
